{
  "source": "ChEMBL document CHEMBL1240295",
  "about": "“Specificity and mechanism of action of some commonly used protein kinase inhibitors” (Biochem J, 2000)",
  "key": {"[1]": {"target": "MAP kinase-activated protein kinase 5 (Homo sapiens, UniProt Q8IW41)", "type": "cell-based, Sf9"}, "[2]": {"target": "T1, MAP kinase-activated protein kinase 2 (Homo sapiens, UniProt P49137)", "test": "Inhibition of His-tagged human MAPKAPK2 expressed in Escherichia coli […]"}, "[3]": {"target": "Protein kinase C delta type (Homo sapiens) (UniProt Q05655)", "conditions": "20 uM", "description": "Inhibition of His-tagged human PKCdelta expressed in Escherichia coli at 20 uM"}, "[4]": {"species": "Bos taurus", "test": "Inhibition of bovine heart PKA at 20 uM; values are per cent of control"}, "[5]": {"species": "Oryctolagus cuniculus", "test": "Inhibition of PHK from rabbit skeletal muscle at 20 uM; values are per cent of control", "conditions": "Muscle tissue"}, "[6]": {"species": "Oryctolagus cuniculus", "test": "Inhibition of rabbit MKK1 expressed in Escherichia coli at 20 uM; values are per cent of control"}, "[7]": {"target": "T2, MAP kinase-activated protein kinase 5 (Homo sapiens) (UniProt Q8IW41)", "T2 sequence (whole entry)": "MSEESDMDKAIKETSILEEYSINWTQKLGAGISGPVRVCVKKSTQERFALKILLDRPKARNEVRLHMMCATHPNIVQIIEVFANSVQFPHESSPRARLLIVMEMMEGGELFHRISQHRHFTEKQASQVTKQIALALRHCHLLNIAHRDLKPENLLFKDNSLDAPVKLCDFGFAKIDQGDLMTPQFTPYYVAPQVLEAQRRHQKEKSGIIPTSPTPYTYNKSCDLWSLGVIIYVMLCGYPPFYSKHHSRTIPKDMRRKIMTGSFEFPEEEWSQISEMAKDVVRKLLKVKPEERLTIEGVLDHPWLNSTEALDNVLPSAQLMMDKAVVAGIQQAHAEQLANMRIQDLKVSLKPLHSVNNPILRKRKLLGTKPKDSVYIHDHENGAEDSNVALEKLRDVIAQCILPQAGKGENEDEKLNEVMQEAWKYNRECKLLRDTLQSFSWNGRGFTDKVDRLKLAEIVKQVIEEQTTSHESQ", "test": "Inhibition of His-tagged human PRAK expressed in Sf9 cells at 20 uM; values are per cent of control"}, "[8]": {"target": "3-phosphoinositide-dependent protein kinase 1 (Homo sapiens) (UniProt O15530)", "sequence (O15530 whole entry, looked up)": "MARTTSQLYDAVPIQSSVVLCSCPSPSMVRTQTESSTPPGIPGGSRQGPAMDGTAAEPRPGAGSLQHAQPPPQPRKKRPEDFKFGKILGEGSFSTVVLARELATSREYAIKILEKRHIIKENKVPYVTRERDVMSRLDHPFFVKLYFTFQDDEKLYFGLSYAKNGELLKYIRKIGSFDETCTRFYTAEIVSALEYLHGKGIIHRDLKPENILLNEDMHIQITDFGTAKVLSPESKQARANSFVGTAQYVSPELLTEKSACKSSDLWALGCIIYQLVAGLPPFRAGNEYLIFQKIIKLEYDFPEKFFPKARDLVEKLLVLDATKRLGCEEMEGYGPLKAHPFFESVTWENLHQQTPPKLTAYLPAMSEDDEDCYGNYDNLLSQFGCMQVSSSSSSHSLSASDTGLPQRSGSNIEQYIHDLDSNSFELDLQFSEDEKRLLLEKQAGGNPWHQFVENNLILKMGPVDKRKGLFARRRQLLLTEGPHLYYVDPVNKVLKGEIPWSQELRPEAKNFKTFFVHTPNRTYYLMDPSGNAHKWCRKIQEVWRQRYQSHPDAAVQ", "test": "Inhibition of His-tagged human PDK1 expressed in Sf21 cells at 20 uM; values are per cent of control"}, "[9]": {"target": "T1, MAP kinase-activated protein kinase 2", "test": "Inhibition of His-tagged human MAPKAPK2 expressed in Escherichia coli at 20 uM; values are per cent of control"}, "[10]": {"target": "T3, Protein kinase C alpha type (Homo sapiens, UniProt P17252)", "test": "Inhibition of His-tagged human PKCalpha expressed in Escherichia coli at 20 uM; values are per cent of control"}, "[11]": {"target": "Mitogen-activated protein kinase 11 (Homo sapiens) (UniProt Q15759)", "sequence (Q15759 whole entry)": "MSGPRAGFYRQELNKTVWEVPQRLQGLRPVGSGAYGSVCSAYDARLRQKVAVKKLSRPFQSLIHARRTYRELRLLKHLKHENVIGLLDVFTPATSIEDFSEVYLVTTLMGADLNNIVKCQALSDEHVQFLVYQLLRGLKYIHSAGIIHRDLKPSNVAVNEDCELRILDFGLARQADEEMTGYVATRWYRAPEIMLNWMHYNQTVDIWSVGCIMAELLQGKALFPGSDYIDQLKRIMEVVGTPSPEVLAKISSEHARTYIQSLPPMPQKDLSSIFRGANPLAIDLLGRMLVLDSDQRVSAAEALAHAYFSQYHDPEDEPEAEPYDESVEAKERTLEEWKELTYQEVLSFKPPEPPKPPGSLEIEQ", "test": "Inhibition of His-tagged human SAPK2b/p38b2 expressed in Escherichia coli at 20 uM; values are per cent of control"}, "[12]": {"target": "T4, Mitogen-activated protein kinase 12 (Homo sapiens) (UniProt P53778)", "T4 sequence (whole entry)": "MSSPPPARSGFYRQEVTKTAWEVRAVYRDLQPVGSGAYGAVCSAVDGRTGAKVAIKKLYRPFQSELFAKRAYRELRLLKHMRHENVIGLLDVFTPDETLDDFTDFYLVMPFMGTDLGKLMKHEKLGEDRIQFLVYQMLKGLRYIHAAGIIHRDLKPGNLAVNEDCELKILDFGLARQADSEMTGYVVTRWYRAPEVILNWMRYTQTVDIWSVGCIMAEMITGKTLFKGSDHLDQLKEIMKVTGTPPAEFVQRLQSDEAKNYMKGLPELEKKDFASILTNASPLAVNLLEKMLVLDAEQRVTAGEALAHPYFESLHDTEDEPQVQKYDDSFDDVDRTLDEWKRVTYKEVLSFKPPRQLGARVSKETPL", "test": "Inhibition of His-tagged human SAPK3/p38gamma expressed in Escherichia coli at 20 uM; values are per cent of control"}, "[13]": {"target": "Ribosomal protein S6 kinase beta-1 (Homo sapiens, UniProt P23443)", "test": "Inhibition of His-tagged human S6K1 expressed in Escherichia coli"}, "[14]": {"target": "Ribosomal protein S6 kinase alpha-5 (Homo sapiens, UniProt O75582)", "test": "Inhibition of His-tagged human MSK1 expressed in Sf9 cells"}, "[15]": {"test": "Inhibition of MAPKAPK1b from rabbit skeletal muscle", "type": "tissue-based, Oryctolagus cuniculus, Muscle tissue"}, "[16]": {"target": "Glycogen synthase kinase-3 beta (Homo sapiens, UniProt P49841)", "sequence (P49841 whole entry)": "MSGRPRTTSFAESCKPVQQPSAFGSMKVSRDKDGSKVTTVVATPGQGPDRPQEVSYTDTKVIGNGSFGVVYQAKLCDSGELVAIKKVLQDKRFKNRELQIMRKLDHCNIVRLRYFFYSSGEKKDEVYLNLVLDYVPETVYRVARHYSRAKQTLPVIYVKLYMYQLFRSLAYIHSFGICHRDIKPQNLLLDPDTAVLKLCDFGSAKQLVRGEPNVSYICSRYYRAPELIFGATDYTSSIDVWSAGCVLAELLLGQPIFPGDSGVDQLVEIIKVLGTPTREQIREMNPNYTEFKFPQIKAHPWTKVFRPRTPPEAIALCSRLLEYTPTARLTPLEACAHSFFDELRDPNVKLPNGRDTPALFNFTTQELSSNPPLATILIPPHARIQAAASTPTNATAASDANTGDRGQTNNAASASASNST", "test": "Inhibition of His-tagged human GSK3b expressed in Sf21 cells"}, "[17]": {"target": "T3, Protein kinase C alpha type", "test": "Inhibition of His-tagged human PKCalpha expressed in Escherichia coli"}, "[18]": {"target": "Myosin light chain kinase 2, skeletal/cardiac muscle (Homo sapiens) (UniProt Q9H1R3)", "sequence (Q9H1R3 whole entry)": "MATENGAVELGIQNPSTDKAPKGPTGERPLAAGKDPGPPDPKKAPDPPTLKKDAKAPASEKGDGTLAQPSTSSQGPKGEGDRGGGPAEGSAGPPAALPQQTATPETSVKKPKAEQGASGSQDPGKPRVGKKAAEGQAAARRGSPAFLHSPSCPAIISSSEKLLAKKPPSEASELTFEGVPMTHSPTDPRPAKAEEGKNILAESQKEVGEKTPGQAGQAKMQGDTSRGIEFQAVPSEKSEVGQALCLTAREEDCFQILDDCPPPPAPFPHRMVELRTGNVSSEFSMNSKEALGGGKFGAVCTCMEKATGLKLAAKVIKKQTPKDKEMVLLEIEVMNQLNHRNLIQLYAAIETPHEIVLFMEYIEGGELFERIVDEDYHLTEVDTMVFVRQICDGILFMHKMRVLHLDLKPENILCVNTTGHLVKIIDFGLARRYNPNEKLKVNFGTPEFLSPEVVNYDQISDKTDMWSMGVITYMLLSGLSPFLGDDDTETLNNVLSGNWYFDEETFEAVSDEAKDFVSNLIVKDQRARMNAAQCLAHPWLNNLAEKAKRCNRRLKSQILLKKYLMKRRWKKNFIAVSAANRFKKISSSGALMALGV", "test": "Inhibition of His-tagged human SkMLCK expressed in Escherichia coli at 1 uM"}, "[19]": {"target": "Myosin light chain kinase, smooth muscle (Gallus gallus) (UniProt P11799)", "sequence (P11799 whole entry)": "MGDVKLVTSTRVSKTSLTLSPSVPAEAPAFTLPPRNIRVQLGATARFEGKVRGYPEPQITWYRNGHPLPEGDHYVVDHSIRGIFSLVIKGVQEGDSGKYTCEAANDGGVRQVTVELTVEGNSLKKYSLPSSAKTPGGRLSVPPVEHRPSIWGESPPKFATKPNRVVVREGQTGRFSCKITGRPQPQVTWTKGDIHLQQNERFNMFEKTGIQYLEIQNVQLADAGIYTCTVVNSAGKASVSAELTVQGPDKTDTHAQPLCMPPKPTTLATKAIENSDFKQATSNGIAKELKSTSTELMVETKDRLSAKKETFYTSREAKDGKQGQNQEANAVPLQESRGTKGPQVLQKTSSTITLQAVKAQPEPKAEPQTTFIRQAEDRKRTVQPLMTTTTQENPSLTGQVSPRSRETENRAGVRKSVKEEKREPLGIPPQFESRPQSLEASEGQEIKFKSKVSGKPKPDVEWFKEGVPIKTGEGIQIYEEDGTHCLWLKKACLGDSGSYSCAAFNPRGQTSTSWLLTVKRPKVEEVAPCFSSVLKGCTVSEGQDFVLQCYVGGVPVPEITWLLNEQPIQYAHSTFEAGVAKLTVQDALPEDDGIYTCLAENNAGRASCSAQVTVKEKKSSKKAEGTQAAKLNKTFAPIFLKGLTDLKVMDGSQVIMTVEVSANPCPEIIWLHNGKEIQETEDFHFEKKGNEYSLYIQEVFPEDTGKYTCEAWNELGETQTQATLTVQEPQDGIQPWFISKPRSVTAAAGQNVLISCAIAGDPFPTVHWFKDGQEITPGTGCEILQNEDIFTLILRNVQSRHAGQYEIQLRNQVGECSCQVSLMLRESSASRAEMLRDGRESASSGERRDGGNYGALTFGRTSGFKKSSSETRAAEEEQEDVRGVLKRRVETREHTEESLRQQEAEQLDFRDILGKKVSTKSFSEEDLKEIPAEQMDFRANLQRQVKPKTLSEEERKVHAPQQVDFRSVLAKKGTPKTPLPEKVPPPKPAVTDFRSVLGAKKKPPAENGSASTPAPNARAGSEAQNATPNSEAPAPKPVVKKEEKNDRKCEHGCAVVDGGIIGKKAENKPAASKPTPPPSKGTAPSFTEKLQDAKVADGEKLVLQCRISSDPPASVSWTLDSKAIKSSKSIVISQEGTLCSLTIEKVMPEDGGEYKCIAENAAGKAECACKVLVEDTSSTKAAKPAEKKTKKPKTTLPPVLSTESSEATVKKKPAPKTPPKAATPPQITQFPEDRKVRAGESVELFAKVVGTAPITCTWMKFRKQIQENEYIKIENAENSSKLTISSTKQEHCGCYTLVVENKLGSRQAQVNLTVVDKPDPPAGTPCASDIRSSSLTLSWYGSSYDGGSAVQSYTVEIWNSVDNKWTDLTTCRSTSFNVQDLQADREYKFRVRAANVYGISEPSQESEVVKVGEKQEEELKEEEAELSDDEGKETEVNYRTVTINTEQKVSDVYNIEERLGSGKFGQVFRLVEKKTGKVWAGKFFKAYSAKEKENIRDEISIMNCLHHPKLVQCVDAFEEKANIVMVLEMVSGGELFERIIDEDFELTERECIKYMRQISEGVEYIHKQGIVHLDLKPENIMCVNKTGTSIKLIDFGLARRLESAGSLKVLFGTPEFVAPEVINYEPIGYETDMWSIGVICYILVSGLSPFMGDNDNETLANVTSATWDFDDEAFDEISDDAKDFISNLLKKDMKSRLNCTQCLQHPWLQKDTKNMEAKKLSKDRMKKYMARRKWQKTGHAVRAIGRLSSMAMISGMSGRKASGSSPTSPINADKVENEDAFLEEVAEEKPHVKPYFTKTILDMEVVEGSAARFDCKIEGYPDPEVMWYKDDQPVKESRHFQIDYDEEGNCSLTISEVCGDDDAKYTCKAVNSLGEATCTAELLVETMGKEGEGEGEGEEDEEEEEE", "test": "Inhibition of chicken SmMLCK expressed in Escherichia coli at 1 uM"}, "[20]": {"target": "Myosin light chain kinase, smooth muscle (Gallus gallus, UniProt P11799)", "sequence (P11799 whole entry)": "as above", "test": "Inhibition of chicken SmMLCK expressed in Escherichia coli"}, "[21]": {"target": "Phosphatidylinositol 4,5-bisphosphate 3-kinase catalytic subunit alpha isoform (Bos taurus) (UniProt P32871)", "sequence (P32871 whole entry, canonical isoform)": "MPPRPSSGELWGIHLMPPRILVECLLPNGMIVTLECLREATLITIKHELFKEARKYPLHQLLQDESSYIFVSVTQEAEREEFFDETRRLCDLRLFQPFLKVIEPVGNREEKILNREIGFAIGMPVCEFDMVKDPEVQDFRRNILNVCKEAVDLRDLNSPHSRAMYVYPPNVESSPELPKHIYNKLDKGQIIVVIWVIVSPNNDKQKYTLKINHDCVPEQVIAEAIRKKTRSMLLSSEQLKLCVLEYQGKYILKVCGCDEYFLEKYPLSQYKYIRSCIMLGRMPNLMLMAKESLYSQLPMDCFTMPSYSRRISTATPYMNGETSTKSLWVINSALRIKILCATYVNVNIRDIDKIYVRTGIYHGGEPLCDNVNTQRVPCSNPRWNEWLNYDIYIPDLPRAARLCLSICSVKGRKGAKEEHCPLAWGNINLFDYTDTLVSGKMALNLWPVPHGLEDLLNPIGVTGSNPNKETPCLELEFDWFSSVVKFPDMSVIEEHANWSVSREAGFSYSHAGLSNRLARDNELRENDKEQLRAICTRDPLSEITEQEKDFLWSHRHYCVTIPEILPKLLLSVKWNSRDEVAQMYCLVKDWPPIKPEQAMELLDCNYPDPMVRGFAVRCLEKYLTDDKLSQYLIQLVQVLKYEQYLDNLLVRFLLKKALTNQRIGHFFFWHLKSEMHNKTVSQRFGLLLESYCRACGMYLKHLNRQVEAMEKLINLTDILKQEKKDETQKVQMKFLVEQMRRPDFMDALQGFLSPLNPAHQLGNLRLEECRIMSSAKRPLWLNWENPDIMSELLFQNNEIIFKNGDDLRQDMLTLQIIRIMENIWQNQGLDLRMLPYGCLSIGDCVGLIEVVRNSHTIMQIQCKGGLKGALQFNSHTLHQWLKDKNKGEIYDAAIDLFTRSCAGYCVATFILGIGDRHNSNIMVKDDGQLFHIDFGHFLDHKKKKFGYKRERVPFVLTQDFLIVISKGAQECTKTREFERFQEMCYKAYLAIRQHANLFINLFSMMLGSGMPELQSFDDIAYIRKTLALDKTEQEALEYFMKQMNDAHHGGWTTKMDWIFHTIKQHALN", "conditions": "Sf9, 1 uM", "description": "Inhibition of His-tagged bovine PI3K expressed in Sf9 cells at 1 uM"}, "[22]": {"target": "Phosphatidylinositol 4,5-bisphosphate 3-kinase catalytic subunit alpha isoform (Bos taurus) (UniProt P32871)", "test": "Inhibition of His-tagged bovine PI3K expressed in Sf9 cells at 20 uM"}},
  "data": [
    {"smiles": "CC(=O)c1c(O)c(C)c(O)c(Cc2c(O)c3c(c(C(=O)/C=C/c4ccccc4)c2O)OC(C)(C)C=C3)c1O", "note": "[ROTTLERIN]", "values": [
      {"measurement": "IC50", "setting": "[1]", "result": 1900, "unit": "nM"},
      {"measurement": "IC50", "setting": "[2]", "result": 5400, "unit": "nM"},
      {"measurement": "inhibition", "setting": "[3]", "result": 101, "unit": "%"},
      {"measurement": "residual activity", "setting": "[4]", "result": 17, "unit": "%"},
      {"measurement": "level, % of control", "setting": "[5]", "result": 63, "unit": "%"},
      {"measurement": "residual activity", "setting": "[6]", "result": 106, "unit": "%"},
      {"measurement": "residual activity", "setting": "[7]", "result": 6, "unit": "%"},
      {"measurement": "residual activity", "setting": "[8]", "result": 36, "unit": "%"},
      {"measurement": "residual activity", "setting": "[9]", "result": 5, "unit": "%"},
      {"measurement": "residual activity", "setting": "[10]", "result": 95, "unit": "%"},
      {"measurement": "residual activity", "setting": "[11]", "result": 127, "unit": "%"},
      {"measurement": "residual activity", "setting": "[12]", "result": 146, "unit": "%"}
    ]},
    {"smiles": "Cn1cc(C2=C(c3cn(CCCSC(=N)N)c4ccccc34)C(=O)NC2=O)c2ccccc21", "note": "[BISINDOLYLMALEIMIDE IX]", "values": [
      {"measurement": "IC50", "setting": "[13]", "result": 15, "unit": "nM"},
      {"measurement": "IC50", "setting": "[14]", "result": 8, "unit": "nM"},
      {"measurement": "IC50", "setting": "[15]", "result": 3, "unit": "nM"},
      {"measurement": "IC50", "setting": "[16]", "result": 38, "unit": "nM"},
      {"measurement": "IC50", "setting": "[17]", "result": 33, "unit": "nM"}
    ]},
    {"smiles": "COC[C@H]1OC(=O)c2coc3c2[C@@]1(C)C1=C(C3=O)[C@@H]2CCC(=O)[C@@]2(C)C[C@H]1OC(C)=O", "note": "[WORTMANNIN]", "values": [
      {"measurement": "inhibition", "setting": "[18]", "result": 4, "unit": "%"},
      {"measurement": "inhibition", "setting": "[19]", "result": 4, "unit": "%"},
      {"measurement": "IC50", "setting": "[20]", "result": 260, "unit": "nM"},
      {"measurement": "inhibition", "setting": "[21]", "result": 0, "unit": "%"}
    ]},
    {"smiles": "O=c1c(O)c(-c2ccc(O)c(O)c2)oc2cc(O)cc(O)c12", "values": [
      {"measurement": "inhibition", "setting": "[22]", "result": 18, "unit": "%"},
      {"measurement": "residual activity", "setting": "[4]", "result": 104, "unit": "%"},
      {"measurement": "level, % of control", "setting": "[5]", "result": 32, "unit": "%"},
      {"measurement": "residual activity", "setting": "[6]", "result": 94, "unit": "%"},
      {"measurement": "residual activity", "setting": "[7]", "result": 51, "unit": "%"},
      {"measurement": "residual activity", "setting": "[8]", "result": 81, "unit": "%"},
      {"measurement": "residual activity", "setting": "[9]", "result": 90, "unit": "%"},
      {"measurement": "residual activity", "setting": "[10]", "result": 70, "unit": "%"},
      {"measurement": "residual activity", "setting": "[11]", "result": 150, "unit": "%"},
      {"measurement": "residual activity", "setting": "[12]", "result": 132, "unit": "%"}
    ]}
  ]
}
